Source: US20230381774A1, “MICROFLUDIC LAB-ON-CHIP DEVICE, MATRIX, SMALL MOLECULES AND THREE-DIMENSIONAL SPHEROIDS FOR CELL REPROGRAMMING” (The Regents of the University of California, priority 2022, published 2023)
“Also recorded” adds a separate entry of the source.

Columns and labels:
[1] = tested on: primary human neonatal dermal fibroblasts (hNDFs); assay: Spatial iN reprogramming in 3D spheroids (Tuj1 staining); assay type: cell-based; settings: 3 days of reprogramming, relative to no-treatment controls
From the text: For the reduction to practice, primary human neonatal dermal fibroblasts (hNDFs) were transduced with doxycycline (Dox)-inducible lentiviral vectors for the BAMN factors. After Dox induction in monolayer to ensure unbiased activation of the transgenes, hNDFs were either plated onto Matrigel-coated cover slips as 2D controls or centrifuged in microwells to form 3D aggregates, or “spheroids” (FIG. 9A). The expression of neuron-specific β-tubulin III (Tuj1) was used as a marker of neuronal fate, as is convention. Tuj1 expression began earlier in spheroids than in 2D culture, appearing as early as day 2 (two days after Dox induction and one day after spheroid formation) (FIG. 9BC). To evaluate relative reprogramming efficiency, spheroids were replated onto Matrigel-coated cover slips after three days without enzymatic disaggregation.
Direct reprogramming involves both disruption of the existing regulatory network (generally early on) and establishment of another. The initial nonspecific disruption is often mechanistically associated with cell cycle regulation, cell senescence, chromatin inactivation, and genome stability. To assess the impact of mechanobiological changes associated with spheroid culture on direct reprogramming, primary human neonatal dermal fibroblasts (hNDFs) were transduced with doxycycline (dox)-inducible lentiviral vectors for the BAMN factors. […]

[2] = tested on: BAM-transduced fibroblasts; assay: iN reprogramming of BAM-transduced fibroblasts with chemical/siRNA treatment and microfluidic squeezing (Tuj1 staining, day 7); assay type: cell-based, mouse; settings: for iN reprogramming efficiency: agent alone without squeezing, vs control, Bix01294 1 μM, JIB-04 100 nM, Decitabine 0.5 μM, 24 hours; for increase of iN conversion: alone, at its optimal concentration; for nuclear deformation-induced iN reprogramming efficiency: pre-treatment followed by squeezing in 7-μm microchannels, vs squeezed-only group
Experimental: Fibroblasts were isolated from ear tissues of adult (1 month-old) C57BL/6 mice, Tau-EGFP reporter mice (Jackson Laboratory, 004779) and R26-M2rtTA;Col1a1-tetO-H2B-GFP compound mutant mice (Jackson Laboratory, 016836), and expanded in fibroblast medium: DMEM (Gibco, 11965), 10% fetal bovine serum (FBS; Gibco, 26140079) and 1% penicillin/streptomycin (GIBCO, 15140122). For all experiments, passage-2 cells were used and synchronized upon reaching 80% confluency using DMEM with 1% FBS for 24 hours before the transduction with viruses containing BAM constructs. The following day (day 0) the medium was changed to mouse embryonic fibroblasts (MEF) medium containing doxycycline (2 ng/ml, Sigma) to initiate the expression of the transgenes and thus, reprogramming. After 6 hours, transduced fibroblasts were passaged, and either subjected to microfluidic deformation using microchannels of various widths. Cells were then seeded onto glass slides coated with 0.1 mg/mL fibronectin (ThermoFisher, 33016015) overnight at a density of 3,000 cells/cm^2. Twenty-four hours later (day 1), cells were cultured in N2B27 medium: DMEM/F12 (Gibco, 11320033), N-2 supplement (Gibco, 17502048), B-27 supplement (Gibco, 17504044), 1% penicillin/streptomycin, and doxycycline (2 ng/ml), and half medium changes were performed every 2 days. On day 7 after microfluidic deformation, cells were fixed and stained for Tuj1 to determine the reprogramming efficiency. iN cells were identified based on positive Tuj1 staining and a neuronal morphology. The reprogramming efficiency was determined as the percentage of iN cells on day 7 relative to the number of the cells initially seeded. For long-term studies where maturation and functionality of the iN cells were examined, cells were kept in culture for 5 weeks. Reprogramming of iPSC from wild-type fibroblasts was performed as described previously^18.
To determine the role of H3K9 methylation in microfluidic device-induced iN reprogramming, BAM-transduced fibroblasts were treated with the H3K9 methyltransferase inhibitor Bix-01294 (Cayman chemical, 13124) or demethylase inhibitor JIB-04 (Cayman chemical, 15338) at the indicated concentrations for 24 hours prior to introduction into the microdevice. Parallel conditions with DMSO served as a control. The iN reprogramming efficiency was determined via Tuj1 staining 7 days after squeezing.
To determine the involvement of ion channels in microfluidic device-induced iN reprogramming, calcium channel blocker Amlodipine (Cayman chemical, 14838), potassium channel blocker Quinine (Cayman chemical, 23958) and sodium channel blocker procainamide (Cayman chemical, 24359) were used to inhibit calcium, potassium, and sodium ion channels, respectively. BAM-transduced fibroblasts were treated with small molecule blockers at the indicated concentrations for 12 hours prior to being introduced into the microfluidic device. Parallel conditions with DMSO served as a control. The iN reprogramming efficiency was determined via Tuj1 staining 7 days after squeezing.

H3K9me3 = H3K9me3 level in fibroblasts (immunostaining); assay type: cell-based, mouse; settings: for H3K9me3 level: agent alone
Experimental: Samples collected for immunofluorescence staining at the indicated time points were washed once with PBS and fixed in 4% paraformaldehyde for 15 minutes. Samples were washed three times with PBS for 5 minutes each and permeabilized using 0.5% Triton X-100 for 10 minutes. After three subsequent PBS washes, samples were blocked with 5% normal donkey serum (NDS; Jackson Immunoresearch, 017000121) in PBS for 1 hour. Samples were incubated with primary antibodies (Supplementary Table S1 in Song et al.) in antibody dilution buffer (1% normal donkey serum (NDS)+0.1% Triton X-100 in PBS) for either 1 hour or overnight at 4° C. followed by three PBS washes and a 1-hour incubation with Alexa Fluor® 488- and/or Alexa Fluor® 546-conjugated secondary antibodies (Molecular Probes). Nuclei were stained with DAPI in PBS for 10 minutes. Epifluorescence images were collected using a Zeiss Axio Observer Z1 inverted fluorescence microscope and analyzed using ImageJ. Confocal images were collected using a Leica SP8-STED/FLIM/FCS Confocal and analyzed using ImageJ.
Average lamin and histone marker intensities per nuclei were quantified using an ImageJ macro. Gaussian blur, thresholding, watershed, and analyze particle functions were applied to the DAPI channel to create individual selections for each nucleus. This mask was applied to the corresponding stain image to measure the average fluorescence intensity within each nucleus.

[3] = tested on: BAM-transduced fibroblasts; assay: iN reprogramming of BAM-transduced fibroblasts with cytoskeletal and adhesion inhibitors (TUBB3+ iN cells, 2 weeks); assay type: cell-based, mouse; settings: Y-27632 20 μM, nocodazole 0.3 μM, cytochalasin D 1 μM, jasplakinolide 0.05 μM; U0126 various doses
Experimental: To examine whether these changes in cell stiffness, actin structure and expression of contractility-mediating genes were involved in iN reprogramming, we evaluated the effects of disrupting the cytoskeleton using small molecule inhibitors. For these experiments, BAM-transduced fibroblasts were reprogrammed as in FIG. 1A and chemical compounds known to perturb the cytoskeleton were added to the culture medium on day 1 to evaluate their effects on the reprogramming process. […] The reprogramming efficiency was determined as the percentage of TUBB3*-iN cells normalized to the number of cells plated at 24 hours post-seeding (i.e., day 0). First, we tested whether disruption of cytoskeletal contractility could influence the direct reprogramming of fibroblasts into neurons using blebbistatin, a non-muscle myosin II inhibitor^22-24. We observed that iN cells could be derived in the absence and presence of blebbistatin (FIG. 3A). […] In particular, treatment with 10 μM blebbistatin generated the highest number of iN cells and increased the reprogramming efficiency by approximately 4.5-fold compared to the control, therefore, this concentration was used in all subsequent experiments. […] As Ascl1 has been identified as a pioneer factor for iN reprogramming and transduction of Ascl1 alone is sufficient to generate iN cells^25,26, we further investigated whether blebbistatin could influence iN conversion by Ascl1 induction.
After transduction, mouse fibroblasts were seeded onto multi-well tissue culture-treated polystyrene dishes (Falcon) coated with laminin (0.1 mg/ml, Corning) at 4,000 cells per cm^2. Twenty-four hours after seeding, the medium was replaced to MEF medium containing doxycycline (2 μg/ml, Sigma). The following day (i.e., day 1) the medium was changed to N3 medium (DMEM/F12 [GIBCO]+N2 supplement [Invitrogen]+B27 supplement [Invitrogen]+1% penicillin/streptomycin [Gibco]+ doxycycline [2 μg/ml, Sigma]) and the cultures were maintained in this medium for the duration of the experiments. For Ascl1-only reprogramming, N3 medium was further supplemented with BDNF (5 ng/ml, R&D systems) and GDNF (5 ng/ml, R&D systems) after day 7. For cytoskeletal and cell adhesion disruptions, Blebbistatin (Millipore), Y-27632 (20 μM; Cayman Chemical), Nocodazole (0.3 μM; Sigma), Cytochalasin D (1 μM; Sigma), Jasplakinolide (0.05 μM; Cayman Chemical) and PF573228 (Sigma) were administered in N3 medium on day 1 and for the first 7 days of reprogramming (unless stated otherwise) and used at the indicated concentrations. Culture medium was replenished every 2 days during reprogramming to maintain the activity of the small molecules. After culturing for the desired length (14 days for BAM and 21 days for Ascl1 only), the induced neuronal (iN) cells were analyzed and the reprogramming efficiency was determined.
The reprogramming efficiency was determined by as the percentage of TUBB3^+ iN cells in each condition normalized to the number of cells plated at 24 hours post-seeding. Epifluorescence images were collected using a Zeiss Axio Observer.D1, Zeiss Axio Observer.Z1, and ImageXpress Micro XLS System (Molecular Devices), whereas confocal images were acquired using a Zeiss LSM710 microscope and Leica SP8 Confocal Laser Scanning microscope.

histone marks = assay: Immunofluorescence of histone marks in non-transduced fibroblasts; assay type: cell-based, mouse; settings: for euchromatin marks (AcH3, H3K4me3, H3K4me1): global, 10 μM blebbistatin or 5 μM PF573228, 2 hours, vs control; for histone trends compared with blebbistatin: other cytoskeletal compounds
Experimental: For immunostaining, cells were fixed with 4% paraformaldehyde (Electron Microscopy Sciences), permeabilized with 0.5% Triton-X-100 (Sigma), and blocked with 5% donkey serum (Jackson Immunoresearch) in phosphate buffered saline (PBS). For actin-cytoskeleton staining, samples were incubated with fluorescein isothiocyanate-conjugated phalloidin (Invitrogen) for 1 hour. Primary antibodies were incubated for 1 hour at room temperature or overnight at 4° C., followed by 1-hour incubation with Alexa 488 and/or Alexa 546-labeled secondary antibodies (Molecular Probes). Nuclei were stained with 4,6-diamino-2-phenylindole (DAPI) (Invitrogen).
Quantification of histone intensity per nuclei was performed using an ImageJ macro. DAPI-stained nuclei were segmented using gaussian blur, thresholding, watershed, and analyze particle functions to identify individual nuclei. This mask was applied to the corresponding stained fluorescence channel to quantify the average fluorescence intensity within each nucleus.

Cc1cccc(-c2nn(C(=S)Nc3ccccc3)cc2-c2ccnc3ccccc23)n1 [A83-01]
spatial Tuj1+ reprogramming patterns, inhibitor alone [1]: did not affect spatial Tuj1+ reprogramming patterns

COc1cc2nc(N3CCCN(C)CC3)nc(NC3CCN(Cc4ccccc4)CC3)c2cc1OC [Bix01294]
iN reprogramming efficiency [2]: partially mimicked the squeezing effect on the reprogramming efficiency
increase of iN conversion [2]: about 2 fold
nuclear deformation-induced iN reprogramming efficiency [2]: slightly increased the reprogramming efficiency compared to the squeezed-only group
H3K9me3 level (H3K9me3): specifically suppressed H3K9me3 in a dose-dependent manner

Nc1ncn([C@H]2C[C@H](O)[C@@H](CO)O2)c(=O)n1 [Decitabine]
increase of iN conversion [2]: about 2 fold

Clc1ccc(N/N=C(\c2ccccc2)c2ccccn2)nc1 [JIB-04]
iN reprogramming efficiency [2]: reduced the reprogramming efficiency compared to the control
nuclear deformation-induced iN reprogramming efficiency [2]: strikingly suppressed nuclear deformation-induced iN reprogramming
H3K9me3 level (H3K9me3): significantly increased H3K9me3
decrease of H3K9me3 by squeezing (H3K9me3; pre-treated for 24 hours, then 7-μm channels): much less than the group without JIB-04 treatment

COc1cc(-c2cc(-c3cccc(O)c3)cnc2N)cc(OC)c1OC [K02288]
spatial Tuj1+ reprogramming patterns, inhibitor alone [1]: did not affect spatial Tuj1+ reprogramming patterns

N#CC(=C(/N)Sc1ccccc1N)/C(C#N)=C(\N)Sc1ccccc1N [U0126]
reprogramming efficiency relative to control [3]: not significantly altered

C[C@@H](N)[C@H]1CC[C@H](C(=O)Nc2ccncc2)CC1 [Y-27632]
reprogramming efficiency relative to control [3]: increased the yield of iN cells similar to blebbistatin, although to a lesser degree

C=C1[C@@H](C)[C@H]2[C@H](Cc3ccccc3)NC(=O)[C@]23[C@H](OC(C)=O)/C=C/[C@@](C)(O)C(=O)[C@@H](C)C/C=C/[C@H]3[C@@H]1O [cytochalasin D]
euchromatin marks (AcH3, H3K4me3, H3K4me1) (histone marks): decreasing euchromatin marks (e.g., AcH3)
histone trends compared with blebbistatin (histone marks): no other cytoskeletal disrupting compounds
reprogramming efficiency relative to control [3]: reduced the reprogramming efficiency relative to control; also recorded: inhibiting iN conversion

C/C1=C\[C@H](C)C[C@H](C)OC(=O)C[C@H](c2ccc(O)cc2)NC(=O)[C@@H](Cc2c(Br)[nH]c3ccccc23)N(C)C(=O)[C@H](C)NC(=O)[C@@H](C)C1 [jasplakinolide]
euchromatin marks (AcH3, H3K4me3, H3K4me1) (histone marks): decreasing euchromatin marks (e.g., AcH3)
histone trends compared with blebbistatin (histone marks): no other cytoskeletal disrupting compounds
reprogramming efficiency relative to control [3]: reduced the reprogramming efficiency relative to control; also recorded: inhibiting iN conversion

COC(=O)Nc1nc2ccc(C(=O)c3cccs3)cc2[nH]1 [nocodazole]
euchromatin marks (AcH3, H3K4me3, H3K4me1) (histone marks): decreasing euchromatin marks (e.g., AcH3)
histone trends compared with blebbistatin (histone marks): no other cytoskeletal disrupting compounds
reprogramming efficiency relative to control [3]: resulted in a reduction in the reprogramming efficiency; also recorded: inhibiting iN conversion

CCCC(CCC)C(=O)O [valproic acid]
iN reprogramming efficiency [2]: slightly increased iN reprogramming efficiency
nuclear deformation-induced iN reprogramming efficiency [2]: additive to mechanical squeezing
